Data reported in patent US20240343733A1, “COMPOUNDS FOR TARGETING DEGRADATION OF IRAK4 PROTEINS” (BIOGEN MA INC., priority 2021, published 2024).
Read-outs that look alike come from different tables or passages of the source.

Tests used:
IRAK4 = target: T1, IRAK4 (Homo sapiens, UniProt Q9NWZ3); assay: IRAK4 Degradation Assay, HiBiT Method; format: cell-based; details: 293T cells expressing HiBiT-tagged IRAK4, 6 hours
T1 construct: 293Tcells expressing HiBiT-tagged IRAK4 were then added into 384-well plates
T1 sequence (Q9NWZ3 1-460): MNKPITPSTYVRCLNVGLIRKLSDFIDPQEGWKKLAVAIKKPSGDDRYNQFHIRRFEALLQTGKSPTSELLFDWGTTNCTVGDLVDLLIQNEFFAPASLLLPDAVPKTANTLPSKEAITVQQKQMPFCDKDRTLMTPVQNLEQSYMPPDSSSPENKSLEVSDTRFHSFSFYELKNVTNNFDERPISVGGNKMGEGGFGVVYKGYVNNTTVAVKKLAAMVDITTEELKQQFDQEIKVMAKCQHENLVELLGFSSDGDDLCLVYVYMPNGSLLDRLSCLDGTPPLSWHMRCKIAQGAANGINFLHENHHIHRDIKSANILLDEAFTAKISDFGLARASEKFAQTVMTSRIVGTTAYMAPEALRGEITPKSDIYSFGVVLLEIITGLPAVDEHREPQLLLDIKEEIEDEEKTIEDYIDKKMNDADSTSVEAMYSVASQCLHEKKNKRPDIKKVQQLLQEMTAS
Outline: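 293T cells with HiBiT knocked in at the C-terminus of endogenous IRAK4, 10,000 per well, treated 6 h at 37 °C with an 11-point half-log series ([…]), in duplicate. Remaining IRAK4 read by Nano-Glo HiBiT lytic luminescence against DMSO-only and media-only controls.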

[1] = Pharmacokinetics (PK) in Male Beagle Dogs; format: in vivo; details: dog, plasma; for Vd: read-out: Vdss
Description: Assay 3. Pharmacokinetics (PK) in Male Beagle Dogs
The pharmacokinetic (PK) profile in plasma of two compounds of the present invention was determined in male beagle dogs following single dose IV (5 mg/kg) and PO (10 mg/kg) administration. This study was performed under non-GLP conditions, and unless otherwise stated, all analytical reagents were standard laboratory reagent grade.
Male beagle dogs were housed individually and maintained in a controlled environment. Pedigree® standard dog chow (Pedigree India Private Ltd, Telangana, India) was provided once daily. Drinking water was available ad libitum. Environmental controls for the animal room were set to maintain a temperature range of 22-25° C., relative humidity range of 40-70%, and a 12-hour light/12-hour dark cycle. Normal healthy animals weighing 10±1 kg, certified by the attending veterinarian, were selected and acclimatized for a minimum of three days prior to initiation of study. Dogs were identified by chip number inserted at the neck region. The study protocol was reviewed and approved by the Institutional Animal Ethics Committee (IAEC).
2-[4-[[4-[1-(2,6-dioxo-3-piperidyl)-3-methyl-2-oxo-benzimidazol-5-yl]-1-piperidyl]methyl]cyclohexyl]-7-isopropoxy-N-pyrazolo[1,5-a]pyrimidin-3-yl-imidazo[1,2-a]pyridine-6-carboxamide, as described in Example 48 (“Compound 48”), and 2-((1R,4S)-4-((4-(1-(2,6-dioxopiperidin-3-yl)-3-methyl-2-oxo-2,3-dihydro-1H-benzo[d]imidazol-5-yl)piperidin-1-yl)methyl)cyclohexyl)-N-(1-((1S,2R)-2-fluorocyclopropyl)-2-oxo-1,2-dihydropyridin-3-yl)-7-isopropoxyimidazo[1,2-a]pyridine-6-carboxamide, as described in Example 169 (“Compound 169”), were each formulated by dissolving the compound in polyethylene glycol (PEG400) (10%) with stirring, followed by the slow addition of 11.11% 2-Hydroxypropyl-beta-cyclodextrin (HPβCD) (90%) in water. Vehicle dose was PEG400 (10%) and 11.11% HP-β-CD (90%) in water. Formulations and vehicle were freshly prepared on the day of dosing and stored at room temperature until used.
All animals were weighed prior to drug administration. The animals were divided into intravenous (IV) group and per os (PO) group for each compound tested, with 3 animals in each group. The vehicle dosing group also included IV and PO groups, making a total of 6 groups of 3 animals each, for 18 animals total. The animals were restrained physically in sternal recumbently, on an examination table. The IV dose was administered by intravenous bolus injection into the cephalic vein and the PO dose was administered via gastric tube. The dosing volume was 1 mL/kg for IV groups and 2 mL/kg for PO groups. The dosing concentration was 5 mg/mL for both IV and PO groups respectively. The animals were fasted overnight and food was provided 4 hours post dose. […] Apart from this, animals were observed twice daily for any clinical signs, if any, and noted accordingly.
From the vehicle treatment group, whole blood was collected for peripheral blood mononuclear cells (PBMC) isolation at Pre-dose, and at 2, 8, 24, 48, 72 and 96 hour timepoints. For both tested compounds IV and PO dosing groups, whole blood was collected for plasma isolation at Pre-dose, and 0.033, 0.083, 0.167, 0.33, 1, 2, 4, 6, 8, 24, 48, 72 and 96 hour timepoints. The anti-coagulant solution used was 6% (v/v) Sodium citrate (200 mM, pH 4.79) (pre-chilled tubes). The whole blood from both IV and PO compound treatment dosing groups collected at Pre-dose, 2, 8, 24, 48, 72 and 96 hours were subjected to PBMC isolation.
For sample preparation, approximately 1-2 mL of whole blood was drawn from the peripheral vein and collected in labeled tubes containing lithium heparin, then stored on ice. The blood samples were centrifuged within 15 minutes to separate plasma at 1540 g at 4° C. for 10 minutes. The plasma was separated and transferred to pre-labeled microcentrifuge tubes and immediately frozen at −80±10° C. until bioanalysis. […]

DC50 (IRAK4) | AUC(0-t) ([1]; 5 mg/kg IV, mean (Table 5)) | C0 ([1]; 5 mg/kg IV, mean (Table 5)) | clearance ([1]; 5 mg/kg IV, mean (Table 5)) | half-life ([1]; 5 mg/kg IV, mean (Table 5)) | Vd ([1]; 5 mg/kg IV, mean (Table 5)) | AUC(0-t) ([1]; 10 mg/kg PO, mean (Table 6)) | Cmax ([1]; 10 mg/kg PO, mean (Table 6)) | bioavailability ([1]; 10 mg/kg PO, mean (Table 6)) | AUC(0-t) ([1]; 5 mg/kg IV, mean) | C0 ([1]; 5 mg/kg IV, mean) | clearance ([1]; 5 mg/kg IV, mean) | half-life ([1]; 5 mg/kg IV, mean) | Vd ([1]; 5 mg/kg IV, mean) | AUC(0-t) ([1]; 10 mg/kg PO, mean) | Cmax ([1]; 10 mg/kg PO, mean) | bioavailability ([1]; 10 mg/kg PO, mean) | SMILES
< 10 nM | 2210 ng·h/mL | 3160 ng/mL | 35 mL/min/kg | 2550 min | 58 L/kg | 472 ng·h/mL | 32.2 ng/mL | 10.7% | – | – | – | – | – | – | – | – | CC(C)Oc1cc2nc([C@H]3CC[C@H](CN4CCC(c5ccc6c(c5)n(C)c(=O)n6C5CCC(=O)NC5=O)CC4)CC3)cn2cc1C(=O)Nc1cccn([C@H]2C[C@H]2F)c1=O (stereo partly drawn) [Compound 169, 2-((1R,4S)-4-((4-(1-(2,6-dioxopiperidin-3-yl)-3-methyl-2-oxo-2,3-dihydro-1H-benzo[d]imidazol-5-yl)piperidin-1-yl)methyl)cyclohexyl)-N-(1-((1S,2R)-2-fluorocyclopropyl)-2-oxo-1,2-dihydropyridin-3-yl)-7-isopropoxyimidazo[1,2-a]pyridine-6-carboxamide]
< 10 nM | – | – | – | – | – | – | – | – | 1720 ng·h/mL | 4180 ng/mL | 46.3 mL/min/kg | 2070 min | 58.5 L/kg | 242 ng·h/mL | 33.9 ng/mL | 7.02% | CC(C)Oc1cc2nc([C@H]3CC[C@H](CN4CCC(c5ccc6c(c5)n(C)c(=O)n6C5CCC(=O)NC5=O)CC4)CC3)cn2cc1C(=O)Nc1cnn2cccnc12 (stereo partly drawn) [Compound 48, 2-[4-[[4-[1-(2,6-dioxo-3-piperidyl)-3-methyl-2-oxo-benzimidazol-5-yl]-1-piperidyl]methyl]cyclohexyl]-7-isopropoxy-N-pyrazolo[1,5-a]pyrimidin-3-yl-imidazo[1,2-a]pyridine-6-carboxamide]
